Reference: patent US20120309676A1, “Lantibiotic Salts” (priority 2010, published 2012)
Structures can show the parent of a compound that is named as a salt.

How the values were obtained:
[1] = test system: Vancomycin-intermediate Staphylococcus aureus; experiment: MIC susceptibility testing, vancomycin-intermediate Staphylococcus aureus; assay type: cell-based
Method: (§1) Susceptibility testing with the exception of Streptococcus pneumoniae was performed by two-fold serial dilutions in Mueller Hinton Broth supplemented with 50 μg/mL Ca^2+. Susceptibility testing of S. pneumoniae was performed by two-fold serial dilutions in Brain-Heart-Infusion Broth supplemented with 50 μg/mL Ca^2+.
(§2) Modal values from up to 6 determinations

[2] = test system: MRSA; experiment: MIC susceptibility testing, MRSA; assay type: cell-based, Staphylococcus aureus
Method: as §1, §2

[3] = test system: Methicillin-sensitive Staph. epidermidis; experiment: MIC susceptibility testing, methicillin-sensitive Staph. epidermidis; assay type: cell-based, S. epidermidis
Method: as §1, §2

[4] = test system: Vancomycin sensitive enterococci, E. faecium; experiment: MIC susceptibility testing, vancomycin sensitive enterococci (E. faecium); assay type: cell-based
Method: as §1, §2

[5] = test system: Vancomycin sensitive enterococci, E. faecalis; experiment: MIC susceptibility testing, vancomycin sensitive enterococci (E. faecalis); assay type: cell-based
Method: as §1, §2

[6] = test system: Staphylococcus aureus methicillin resistant ATCC 33591; experiment: Mouse bacteraemia model, SC dosing; assay type: in vivo
Method: Groups of 6 male CD-1 (Crl.) derived mice weighing 24±2 g were used. Mice were inoculated intraperitoneally (IP) with an LD90-100 of Staphylococcus aureus methicillin resistant ATCC 33591 (1.1×10^7 CFU/mouse) in 0.5 mL of BHI broth containing 5% mucin. Example 1 and vancomycin were dissolved in 15% HPbetaCD/4.4% glucose/0.5 mM KH2PO4, pH 5.0 and doses of 1, 3, 5, 10 and 20 mg/Kg were administered subcutaneously (SC) to test animals at 0, 2 and 24 hour(s) after bacteria challenge. The dosing volume was 5 mL/Kg. Mortality was recorded once daily for 7 days (FIG. 1). The ED50 for each compound was determined by nonlinear regression.

[7] = test system: Methicillin Resistant Staphylococcus aureus (MRSA, ATCC 33591); experiment: Neutropaenic mouse thigh infection model; assay type: in vivo
Method: In vivo efficacy of compounds of the present invention in the treatment of bacterial tissue infections was evaluated using a neutropaenic mouse thigh model.
Groups of 6 male ICR mice weighing 24±2 g were used. Test animals were immunosuppressed by 2 intraperitoneal injections of cyclophosphamide, the first at 150 mg/Kg 4 days before infection (day-4) and the second at 100 mg/Kg 1 day before infection (day-1). On day 0, individual animals were inoculated intramuscularly (IM) into the right thigh of test animals with 1.15×10^8 CFU/mouse of Methicillin Resistant Staphylococcus aureus (MRSA, ATCC 33591) suspended in 100 μL of sterile PBS, pH 7.4. Vehicle and test substances were administered intravenously (IV) at a dose volume of 6 mL/Kg, 2 and 14 hours after thigh infection. Example 1 and vancomycin were dissolved in 15% hydroxypropyl-β-cyclodextrin/4.4% glucose/1.5 mM potassium phosphate buffer, pH 7.0 and administered at doses of 5, 10, 20, 30 and 40 mg/Kg. At 26 hours after inoculation, muscle of the right thigh of each test mouse was harvested. From an additional group with no treatment, muscle of the right thigh was harvested at 2 hours after inoculation for the basal CFU determination. The removed muscle tissues were then homogenized in 3-4 mL of PBS, pH 7.4 with a ceramic mortar. Homogenates of 0.1 mL were used for serial 10-fold dilutions and plated on Mueller Hinton broth in 1.5% Bacto agar for CFU determination. […] Results (mean cfu/g) are graphically represented in FIG. 2.

[8] = test system: Methicillin Resistant Staphylococcus aureus (MRSA, ATCC 33591); experiment: Neutropaenic mouse thigh infection model, further experiment; assay type: in vivo; settings: IV 2 and 14 h after infection, 2.5-50 mg/Kg, FIG. 3
Method: In a further experiment, groups of 6 male ICR mice weighing 24±2 g were used. Test animals were immunosuppressed by 2 intraperitoneal injections of cyclophosphamide, the first at 150 mg/Kg 4 days before infection (day-4) and the second at 100 mg/Kg 1 day before infection (day-1). On day 0, individual animals were inoculated intramuscularly (IM) into the right thigh of test animals with 1.5×10^5 CFU/mouse of Methicillin Resistant Staphylococcus aureus (MRSA, ATCC 33591) suspended in 100 μL of sterile PBS, pH 7.4. Vehicle and test substances were administered intravenously (IV) at a dose volume of 8 mL/Kg, 2 and 14 hours after thigh infection. Example 1 was dissolved in 5% dextrose/1 mM potassium phosphate, pH 5.0 and administered at doses of 2.5, 5, 10, 15, 25 and 50 mg/Kg. At 26 hours after inoculation, muscle of the right thigh of each test mouse was harvested. From an additional group with no treatment, muscle of the right thigh was harvested at 2 hours after inoculation for the basal CFU determination. The removed muscle tissues were then homogenized in 3-4 mL of PBS, pH 7.4 with a ceramic mortar. Homogenates of 0.1 mL were used for serial 10-fold dilutions and plated on Mueller Hinton broth in 1.5% Bacto agar for CFU determination.

## CC[C@H](C)[C@@H]1NC(=O)[C@@H]2NC(=O)[C@H](CC(C)C)NC(=O)[C@H](NC(=O)[C@@H]3CSC[C@@H](N)C(=O)N[C@@H](CO)C(=O)NCC(=O)N[C@@H](Cc4c[nH]c5ccccc45)C(=O)N[C@@H](C(C)C)C(=O)N3)[C@H](C)SC[C@H](NC(=O)[C@H](CCC(=O)O)NC1=O)C(=O)NCC(=O)N[C@H]1C(=O)N[C@@H](CC(C)C)C(=O)N[C@@H](C(C)C)C(=O)N[C@@H](CS[C@H]2C)C(=O)N[C@@H](C)C(=O)N[C@H](C(=O)NCc2cc(Cl)cc(Cl)c2)CS[C@H]1C [Example 1, Deoxyactagardine B (3,5-dichlorobenzylamine) monocarboxamide N-methyl glucamine salt]
[1]; S. aureus 2
  MIC: 4 µg/mL
[1]; S. aureus 26
  MIC: 4 µg/mL
[1]; S. aureus MI
  MIC: 16 µg/mL
[1]; S. aureus Mu3
  MIC: 8 µg/mL
[1]; S. aureus Mu50
  MIC: 4 µg/mL
[1]; S. aureus NJ
  MIC: 8 µg/mL
[1]; S. aureus V99
  MIC: 4 µg/mL
[2]; S. aureus 12232
  MIC: 4 µg/mL
[2]; S. aureus R31
  MIC: 4 µg/mL
[2]; S. aureus R33
  MIC: 4 µg/mL
[2]; S. aureus R34
  MIC: 4 µg/mL
[2]; S. aureus R36
  MIC: 4 µg/mL
[2]; S. aureus R37
  MIC: 4 µg/mL
[2]; S. aureus R39
  MIC: 4 to 8 µg/mL
[2]; S. aureus R40
  MIC: 4 to 8 µg/mL
[2]; S. aureus W71
  MIC: 8 µg/mL
[2]; S. aureus W74
  MIC: 4 µg/mL
[2]; S. aureus W82
  MIC: 4 to 8 µg/mL
[2]; S. aureus W96
  MIC: 4 to 8 µg/mL
[2]; S. aureus W97
  MIC: 4 µg/mL
[2]; S. aureus W98
  MIC: 4 to 8 µg/mL
[2]; S. aureus W99
  MIC: 4 to 8 µg/mL
[3]; S. epidermidis 9AF
  MIC: 16 µg/mL
[3]; S. epidermidis C12
  MIC: 16 µg/mL
[3]; S. epidermidis C16
  MIC: 16 µg/mL
[3]; S. epidermidis GRL05001
  MIC: 8 µg/mL
[3]; S. epidermidis GRL05002
  MIC: 8 µg/mL
[3]; S. epidermidis GRL05003
  MIC: 8 µg/mL
[3]; S. epidermidis GRL05004
  MIC: 4 to 8 µg/mL
[3]; S. epidermidis GRL05005
  MIC: 4 to 8 µg/mL
[3]; S. epidermidis GRL05006
  MIC: 4 to 8 µg/mL
[3]; S. epidermidis GRL05007
  MIC: <16 µg/mL
[3]; S. epidermidis GRL05008
  MIC: 4 to 8 µg/mL
[3]; S. epidermidis GRL05009
  MIC: 16 µg/mL
[3]; S. epidermidis GRL05010
  MIC: <16 µg/mL
[3]; S. epidermidis MF87
  MIC: 4 µg/mL
[4]; E. faecium 19579
  MIC: 4 µg/mL
[4]; E. faecium 7754422
  MIC: <8 µg/mL
[4]; E. faecium 7865229
  MIC: 16 µg/mL
[5]; E. faecalis 7757400
  MIC: <4 µg/mL
[5]; E. faecalis 7791220
  MIC: <16 µg/mL
[5]; E. faecalis GRL05022
  MIC: <8 µg/mL
[5]; E. faecalis GRL05023
  MIC: 4 µg/mL
[5]; E. faecalis GRL05024
  MIC: <8 µg/mL
[5]; E. faecalis GRL05026
  MIC: 8 µg/mL
[5]; E. faecalis GRL05027
  MIC: 4 to 8 µg/mL
[5]; E. faecalis GRL05029
  MIC: 4 µg/mL
[5]; E. faecalis GRL05030
  MIC: <8 µg/mL
[6]; 3 mg/Kg
  survival rate: 100%
[6]; 3, 5, 10 and 20 mg/Kg×3, SC
  antimicrobial effect against S. aureus (MRSA) in mice: significant antimicrobial effect
  increase in survival rate: at least 50%
[6]; CD-1 mice, SC at 0, 2 and 24 h after challenge, mortality over 7 days, nonlinear regression
  estimated ED50: 1.07 mg/kg
[7]; IV at 5, 10, 20, 30 and 40 mg/Kg×2, 2 and 14 h after thigh infection, harvest at 26 h
  antimicrobial effect: significant antimicrobial effect
[7]; at 10 mg/kg and above, IV ×2, thigh muscle at 26 h
  reduction in CFU/g: > 1000 fold
[8]
  bacterial counts in the thigh tissue: dose dependent reduction
